Assays:
GSK-3β [1] = molecular target: T1, GSK-3β (Homo sapiens, UniProt P49841); test: GSK-3β kinase assay in presence of reducing agents; conditions: inhibitor 10 μM; for effect of reducing agents on potency: 2 mM DTT, GSH or TCEP, 84 min
MAPKAPK5 (PRAK) = molecular target: T2, MAPKAPK5 (PRAK) (Homo sapiens, UniProt Q8IW41); test: Kinase panel screen, Z'-LYTE; format: biochemical; conditions: read-out: Inhibition MAPKAPK5 (PRAK), 2 μM COB-187, ATP Km, ±SD n=2
T2 sequence (Q8IW41 1-473): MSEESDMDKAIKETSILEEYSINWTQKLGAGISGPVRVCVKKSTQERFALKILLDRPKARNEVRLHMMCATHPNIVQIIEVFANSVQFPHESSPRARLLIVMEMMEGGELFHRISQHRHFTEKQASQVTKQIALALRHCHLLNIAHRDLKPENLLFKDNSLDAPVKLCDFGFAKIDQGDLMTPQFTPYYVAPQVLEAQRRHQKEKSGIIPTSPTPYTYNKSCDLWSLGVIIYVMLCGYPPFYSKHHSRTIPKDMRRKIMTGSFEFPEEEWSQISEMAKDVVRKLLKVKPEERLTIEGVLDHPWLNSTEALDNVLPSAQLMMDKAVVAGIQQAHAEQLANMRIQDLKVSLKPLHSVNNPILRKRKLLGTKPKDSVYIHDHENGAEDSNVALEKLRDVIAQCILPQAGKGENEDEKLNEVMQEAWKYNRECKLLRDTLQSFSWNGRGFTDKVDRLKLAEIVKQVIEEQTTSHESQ

GSK-3β [2] = molecular target: T1, GSK-3β; test: PhosphoSens real-time kinase assay, wild type GSK-3β; format: biochemical; conditions: for increase in potency with preincubation: 3-hour preincubation vs no preincubation
[3] = Reaction of COB-187 with ethanethiol and tributylphosphine in THF; format: physicochemical; conditions: room temperature to reflux, HPLC and 1H-NMR
GSK-3β C199A mutant = GSK-3β C199A mutant (Homo sapiens, UniProt P49841, C199A); test: PhosphoSens kinase assay, GSK-3β C199A mutant; format: biochemical; conditions: C199A vs wild type GSK-3β
KDR (VEGFR2) = KDR (VEGFR2) (Homo sapiens, UniProt P35968); test: Kinase panel screen, Z'-LYTE; format: biochemical; conditions: read-out: Inhibition KDR (VEGFR2)
GSK-3β [4] = molecular target: T1, GSK-3β; test: Jump dilution assay; format: biochemical; conditions: 3-hour pre-incubation with 50 nM GSK-3β, 100-fold dilution; 2 mM ATP

T1 sequence (P49841 whole entry): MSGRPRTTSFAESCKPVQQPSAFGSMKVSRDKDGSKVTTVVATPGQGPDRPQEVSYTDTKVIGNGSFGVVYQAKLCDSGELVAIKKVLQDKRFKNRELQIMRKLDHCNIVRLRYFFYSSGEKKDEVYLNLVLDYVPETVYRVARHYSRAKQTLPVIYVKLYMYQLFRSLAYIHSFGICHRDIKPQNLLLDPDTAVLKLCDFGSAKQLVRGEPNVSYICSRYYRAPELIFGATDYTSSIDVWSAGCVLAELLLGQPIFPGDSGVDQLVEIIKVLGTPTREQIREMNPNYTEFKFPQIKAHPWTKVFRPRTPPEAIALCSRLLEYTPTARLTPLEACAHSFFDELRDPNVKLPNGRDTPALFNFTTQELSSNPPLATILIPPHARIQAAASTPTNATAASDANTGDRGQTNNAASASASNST
KDR (VEGFR2), sequence (P35968 20-1356): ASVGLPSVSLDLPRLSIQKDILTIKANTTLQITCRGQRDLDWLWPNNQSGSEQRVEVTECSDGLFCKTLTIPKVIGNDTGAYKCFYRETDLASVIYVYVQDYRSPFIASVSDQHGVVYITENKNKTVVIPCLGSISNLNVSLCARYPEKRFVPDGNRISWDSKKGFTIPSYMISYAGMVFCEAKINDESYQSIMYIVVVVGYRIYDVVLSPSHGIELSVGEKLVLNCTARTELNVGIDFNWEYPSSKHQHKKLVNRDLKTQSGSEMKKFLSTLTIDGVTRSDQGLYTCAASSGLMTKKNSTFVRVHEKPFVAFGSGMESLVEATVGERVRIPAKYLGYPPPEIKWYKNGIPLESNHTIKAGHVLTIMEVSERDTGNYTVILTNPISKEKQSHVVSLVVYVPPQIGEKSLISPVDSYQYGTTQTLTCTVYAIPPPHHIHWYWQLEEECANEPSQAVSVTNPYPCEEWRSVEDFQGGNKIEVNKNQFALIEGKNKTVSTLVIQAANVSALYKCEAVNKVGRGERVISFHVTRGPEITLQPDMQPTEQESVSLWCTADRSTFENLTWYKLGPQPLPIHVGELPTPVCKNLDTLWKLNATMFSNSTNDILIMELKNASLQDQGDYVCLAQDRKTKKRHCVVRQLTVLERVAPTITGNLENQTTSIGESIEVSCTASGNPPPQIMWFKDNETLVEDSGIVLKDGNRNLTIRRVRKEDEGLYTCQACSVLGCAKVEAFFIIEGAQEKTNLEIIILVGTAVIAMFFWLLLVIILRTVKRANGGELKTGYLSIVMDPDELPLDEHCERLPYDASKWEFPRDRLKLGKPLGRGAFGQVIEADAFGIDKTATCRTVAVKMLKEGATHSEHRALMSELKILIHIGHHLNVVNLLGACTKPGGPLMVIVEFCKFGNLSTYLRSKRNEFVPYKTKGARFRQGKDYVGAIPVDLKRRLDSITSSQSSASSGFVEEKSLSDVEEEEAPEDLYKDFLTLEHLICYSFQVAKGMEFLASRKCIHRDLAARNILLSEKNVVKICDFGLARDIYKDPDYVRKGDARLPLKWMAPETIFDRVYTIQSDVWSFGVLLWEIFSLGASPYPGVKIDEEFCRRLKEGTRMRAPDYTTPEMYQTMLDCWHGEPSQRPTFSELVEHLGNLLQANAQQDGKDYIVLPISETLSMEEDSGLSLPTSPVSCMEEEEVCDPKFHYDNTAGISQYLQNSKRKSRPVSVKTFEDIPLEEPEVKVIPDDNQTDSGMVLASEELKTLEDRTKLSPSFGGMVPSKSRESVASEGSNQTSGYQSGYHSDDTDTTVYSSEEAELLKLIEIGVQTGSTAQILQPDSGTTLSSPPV
GSK-3β C199A mutant, sequence (P49841 whole entry C199A): as the sequence (P49841 whole entry) above, with C199A counted along it

OC1(c2ccccc2)CSC(=S)N1Cc1ccncc1 (centres unmarked) [COB-187, 4-hydroxy-4-phenyl-3-(pyridin-4-ylmethyl)thiazolidine-2-thione]
effect of reducing agents on potency (GSK-3β [1]): significantly diminished
inhibition at 2 µM (MAPKAPK5 (PRAK)): ~64%
increase in potency with preincubation (GSK-3β [2]): < 4 fold
average k4 from fit of kobs vs concentration to Eq. 8 (induced-fit) (GSK-3β [2]; average of five replicates, ± SD): 2.9 × 10^−4 (±4.8 × 10^−4 SD) 1/min
reaction with ethanethiol and tributylphosphine [3]: no evidence of any reaction
decrease in potency for the mutant versus wild type (GSK-3β C199A mutant): > 300 fold
inhibition at 2 µM (KDR (VEGFR2)): 8 ± 8.2%

COc1cc(O)c2c(c1)[C@H]1O[C@@H]1C[C@H](O)[C@H](O)C(=O)/C=C\C[C@H](C)OC2=O [Hypothemycin]
effect of reducing agents on potency (GSK-3β [1]): significantly diminished
recovery of GSK-3β activity upon jump dilution (GSK-3β [4]): did not recover activity upon jump dilution
increase in potency with preincubation (GSK-3β [2]): ~ 17 fold

O=C1Cc2c([nH]c3ccc([N+](=O)[O-])cc23)-c2ccccc2N1 [Alsterpaullone]
recovery of GSK-3β activity upon jump dilution (GSK-3β [4]): recovered most of its activity upon dilution
increase in potency with preincubation (GSK-3β [2]): no significant increase

COc1ccc(CNC(=O)Nc2ncc([N+](=O)[O-])s2)cc1 [AR-A014418]
effect of DTT or GSH on potency (GSK-3β [1]; 2 mM DTT or GSH): not significantly altered
effect of TCEP on potency (GSK-3β [1]; 2 mM TCEP): significant but modest reduction

Source: article PMC8972088 (Bioorganic & medicinal chemistry, 2021)
